In patent US9493446B2, “Orexin receptor antagonists which are [ortho bi-(hetero-)aryl]-[2-(meta bi-(hetero-)aryl)-pyrrolidin-1-yl]-methanone derivatives” (Actelion Pharmaceuticals Ltd, priority 2012, dated 2016):
pIC50: −log10 of the molar value. Where two headings read alike, the source gives them in different places.

Columns and labels:
human orexin-2 receptor = human orexin-2 receptor (Homo sapiens (Human), UniProt O43614); test: Intracellular calcium measurement (FLIPR), CHO cells expressing human orexin-2 receptor, 3 nM orexin-A; assay type: cell-based; conditions: read-out: IC50 OX2
Chain of human orexin-2 receptor (O43614 whole entry): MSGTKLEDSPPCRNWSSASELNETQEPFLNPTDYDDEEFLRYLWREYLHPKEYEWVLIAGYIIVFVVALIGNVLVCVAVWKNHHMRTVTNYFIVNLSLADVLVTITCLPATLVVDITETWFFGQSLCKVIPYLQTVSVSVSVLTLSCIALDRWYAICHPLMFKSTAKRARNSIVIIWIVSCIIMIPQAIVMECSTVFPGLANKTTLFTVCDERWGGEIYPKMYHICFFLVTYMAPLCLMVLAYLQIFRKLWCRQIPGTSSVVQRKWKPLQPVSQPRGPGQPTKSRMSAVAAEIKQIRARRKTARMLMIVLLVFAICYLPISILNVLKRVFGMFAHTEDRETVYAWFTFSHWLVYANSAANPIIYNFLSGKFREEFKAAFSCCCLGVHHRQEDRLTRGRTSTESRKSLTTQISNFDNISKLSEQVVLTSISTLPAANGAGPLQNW
Summary of the method: (§1)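 CHO transfectants were dye-loaded (fluo-4 AM, probenecid) and exposed to antagonist for 120 min ahead of agonist.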

orexin-1 = orexin-1 (Homo sapiens (Human), UniProt O43613); test: Intracellular calcium measurement (FLIPR), CHO cells expressing human orexin-1 receptor, 3 nM orexin-A; assay type: cell-based; conditions: read-out: IC50 OX1
Chain of orexin-1 (O43613 whole entry): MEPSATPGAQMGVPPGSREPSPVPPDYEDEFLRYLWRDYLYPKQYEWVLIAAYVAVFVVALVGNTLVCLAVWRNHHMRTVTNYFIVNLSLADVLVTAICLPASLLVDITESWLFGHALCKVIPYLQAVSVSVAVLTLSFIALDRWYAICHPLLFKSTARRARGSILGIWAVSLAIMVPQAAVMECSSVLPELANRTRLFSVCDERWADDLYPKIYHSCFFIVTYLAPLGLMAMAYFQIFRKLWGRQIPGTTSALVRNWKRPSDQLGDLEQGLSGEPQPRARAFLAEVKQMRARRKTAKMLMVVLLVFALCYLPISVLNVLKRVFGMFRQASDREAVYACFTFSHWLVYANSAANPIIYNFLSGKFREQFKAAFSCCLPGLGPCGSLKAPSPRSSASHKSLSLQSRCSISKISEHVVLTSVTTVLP
Summary of the method: as §1

[1] = CHO cells expressing human orexin-2 receptor, FLIPR, 3 nM orexin-A, geometric mean if determined several times
[2] = CHO cells expressing human orexin-1 receptor, FLIPR, 3 nM orexin-A, geometric mean if determined several times

Structure (SMILES) | pIC50 (human orexin-2 receptor; [1]) | pIC50 (orexin-1; [2]) | pIC50 (human orexin-2 receptor) | pIC50 (orexin-1)
Cc1c(Cl)cccc1-c1noc([C@@H]2CCCN2C(=O)c2cccnc2-c2ccccn2)n1 [compound 107] | 7.10 | 5.98 |  | 
CCOc1c(F)cccc1-c1nc([C@@H]2CCCN2C(=O)c2ccc(Cl)cc2-n2nccn2)no1 [compound 329] |  | 7.80 | 8.40 | 
Cc1onc(-c2ccccc2Cl)c1C(=O)N1CCC[C@H]1c1nnc(-c2cccc(Cl)c2C)o1 [Ref 9] | < 4.66 | 4.95 |  | 
Cc1ccccc1-c1noc([C@@H]2CCCN2C(=O)c2cccs2)n1 [Ref 3] | < 5.00 | 5.20 |  | 
Cc1ccc(C(=O)N2CCC[C@H]2c2cc(-c3cccc(Cl)c3C)n[nH]2)c(-n2nccn2)c1 [compound 531] | 7.24 |  |  | 6.59
COc1cc(C(=O)N2CCC[C@H]2c2noc(-c3cccc(F)c3OC)n2)c(-n2nccn2)cc1Cl [compound 368] | 9.00 | 7.96 |  | 
Cc1ccc(-n2cccn2)c(C(=O)N2CCC[C@H]2c2nc(-c3cccc(Cl)c3C)no2)c1 [compound 89] | 7.85 | 7.01 |  | 
Cc1ccc(-n2nccn2)c(C(=O)N2CCC[C@H]2c2nc(-c3cccnc3OC3CCC3)no2)c1 [compound 48, {(S)-2-[3-(2-Cyclobutoxy-pyridin-3-yl)-[1,2,4]oxadiazol-5-yl]-pyrrolidin-1-yl}-(5-methyl-2-[1,2,3]triazol-2-yl-phenyl)-methanone] | 7.24 | 7.35 |  | 
CCOc1ccccc1-c1nnc([C@@H]2CCCN2C(=O)c2cc(C)ccc2-n2nccn2)o1 [Example 454, {(S)-2-[5-(2-Ethoxy-phenyl)-[1,3,4]oxadiazol-2-yl]-pyrrolidin-1-yl}-(5-methyl-2-[1,2,3]triazol-2-yl-phenyl)-methanone] | 6.43 | 5.94 |  | 
CCc1ccccc1-c1nc([C@@H]2CCCN2C(=O)c2cc(OC)c(Cl)cc2-n2nccn2)no1 [compound 407] | 8.52 | 7.82 |  | 
Cc1ccc(-n2nccn2)c(C(=O)N2CCC[C@H]2c2noc(-c3ccccc3)n2)c1 [Example 302, (5-Methyl-2-[1,2,3]triazol-2-yl-phenyl)-[(S)-2-(5-phenyl-[1,2,4]oxadiazol-3-yl)-pyrrolidin-1-yl]-methanone] | 6.68 | 6.59 |  | 
Cc1noc(-c2ccccc2C(=O)N2CCC[C@H]2c2nc(-c3cccc(Cl)c3C)no2)n1 [compound 267] | 6.75 | 6.30 |  | 
COc1cccc(-c2nc([C@@H]3CCCN3C(=O)c3cc(Cl)ccc3-n3nccn3)no2)c1C [compound 361] | 7.21 | 6.90 |  | 
Cc1cc(-n2nccn2)c(C(=O)N2CCC[C@H]2c2noc(-c3ccccc3OC(F)(F)F)n2)cc1Cl [compound 365] | 8.22 | 7.89 |  | 
CCOc1ncccc1-c1nc([C@@H]2CCCN2C(=O)c2ccc(C)cc2-n2nccn2)no1 [compound 345] | 7.96 | 7.48 |  | 

Further lines, with some results ahead:

pIC50 (human orexin-2 receptor; [1]) | pIC50 (orexin-1; [2]) | Structure (SMILES) | pIC50 (human orexin-2 receptor) | pIC50 (orexin-1)
7.05 | 6.86 | COc1ccc(C(=O)N2CCC[C@H]2c2nc(-c3ccccc3OC(F)(F)F)no2)c(-n2nccn2)c1 [compound 169, (4-Methoxy-2-[1,2,3]triazol-2-yl-phenyl)-{(S)-2-[3-(2-trifluoromethoxy-phenyl)-[1,2,4]oxadiazol-5-yl]-pyrrolidin-1-yl}-methanone] |  | 
8.70 | 8.30 | CCOc1ncccc1-c1nc([C@@H]2CCCN2C(=O)c2cc(C)ccc2-n2nccn2)no1 [compound 330, {(S)-2-[5-(2-Ethoxy-pyridin-3-yl)-[1,2,4]oxadiazol-3-yl]-pyrrolidin-1-yl}-(5-methyl-2-[1,2,3]triazol-2-yl-phenyl)-methanone] |  | 
5.97 | 5.56 | Cc1ccc(-n2nccn2)c(C(=O)N2CCC[C@H]2c2nc(-c3c[nH]c4cccc(C)c34)no2)c1 [compound 79, {(S)-2-[3-(4-Methyl-1H-indol-3-yl)-[1,2,4]oxadiazol-5-yl]-pyrrolidin-1-yl}-(5-methyl-2-[1,2,3]triazol-2-yl-phenyl)-methanone] |  | 
7.92 | 7.08 | COc1ccc(-n2nccn2)c(C(=O)N2CCC[C@H]2c2nc(-c3cccc(F)c3OC)no2)c1 [compound 199, {(S)-2-[3-(3-Fluoro-2-methoxy-phenyl)-[1,2,4]oxadiazol-5-yl]-pyrrolidin-1-yl}-(5-methoxy-2-[1,2,3]triazol-2-yl-phenyl)-methanone] |  | 
7.06 | 6.46 | Cc1ccc(-n2nccn2)c(C(=O)N2CCC[C@H]2c2ncc(-c3cccc(Cl)c3C)[nH]2)c1 [compound 525, {(S)-2-[5-(3-Chloro-2-methyl-phenyl)-1H-imidazol-2-yl]-pyrrolidin-1-yl}-(5-methyl-2-[1,2,3]triazol-2-yl-phenyl)-methanone] |  | 
8.00 | 7.28 | COc1c(F)cccc1-c1noc([C@@H]2CCCN2C(=O)c2cccc(F)c2-c2ccn[nH]2)n1 [compound 202, {(S)-2-[3-(3-Fluoro-2-methoxy-phenyl)-[1,2,4]oxadiazol-5-yl]-pyrrolidin-1-yl}-[3-fluoro-2-(2H-pyrazol-3-yl)-phenyl]-methanone] |  | 
7.77 | 7.77 | CCc1ccccc1-c1nc([C@@H]2CCCN2C(=O)c2ccc(C)cc2-n2nccn2)no1 [compound 392, {(S)-2-[5-(2-Ethyl-phenyl)-[1,2,4]oxadiazol-3-yl]-pyrrolidin-1-yl}-(4-methyl-2-[1,2,3]triazol-2-yl-phenyl)-methanone] |  | 
5.46 | < 5.18 | COc1ccc(-c2nnc([C@@H]3CCCN3C(=O)c3cc(C)ccc3-n3nccn3)[nH]2)cc1 [compound 514, {(S)-2-[5-(4-Methoxy-phenyl)-4H-[1,2,4]triazol-3-yl]-pyrrolidin-1-yl}-(5-methyl-2-[1,2,3]triazol-2-yl-phenyl)-methanone] |  | 
8.10 | 8.40 | Cc1cc(C(=O)N2CCC[C@@]2(C)c2nnc(-c3ccccc3OC(F)(F)F)[nH]2)c(-n2nccn2)cc1C [compound 546, (4,5-Dimethyl-2-[1,2,3]triazol-2-yl-phenyl)-{(S)-2-methyl-2-[5-(2-trifluoromethoxy-phenyl)-4H-[1,2,4]triazol-3-yl]-pyrrolidin-1-yl}-methanone] |  | 
7.82 | 7.64 | COc1ccccc1-c1noc([C@@H]2CCCN2C(=O)c2cc(C)c(C)cc2-n2nccn2)n1 [compound 230, (4,5-Dimethyl-2-[1,2,3]triazol-2-yl-phenyl)-{(S)-2-[3-(2-methoxy-phenyl)-[1,2,4]oxadiazol-5-yl]-pyrrolidin-1-yl}-methanone] |  | 
7.85 | 6.96 | COCc1ccccc1-c1noc([C@@H]2CCCN2C(=O)c2cc(C)ccc2-n2nccn2)n1 [compound 44, {(S)-2-[3-(2-Methoxymethyl-phenyl)-[1,2,4]oxadiazol-5-yl]-pyrrolidin-1-yl}-(5-methyl-2-[1,2,3]triazol-2-yl-phenyl)-methanone] |  | 
7.77 | 6.19 | Cc1c(F)cccc1-c1nc([C@@H]2CCCN2C(=O)c2ccccc2-n2nccn2)no1 [compound 333, {(S)-2-[5-(3-Fluoro-2-methyl-phenyl)-[1,2,4]oxadiazol-3-yl]-pyrrolidin-1-yl}-(2-[1,2,3]triazol-2-yl-phenyl)-methanone] |  | 
5.67 | 5.46 | Cc1ccc(-n2nccn2)c(C(=O)N2CCC[C@H]2c2cn(-c3ccccc3)nn2)c1 [Example 536, (5-Methyl-2-[1,2,3]triazol-2-yl-phenyl)-[(S)-2-(1-phenyl-1H-[1,2,3]triazol-4-yl)-pyrrolidin-1-yl]-methanone] |  | 
7.46 | 6.48 | COc1ccc(C)cc1-c1nc([C@@H]2CCCN2C(=O)c2ccc(C)cc2-n2nccn2)no1 [compound 414, {(S)-2-[5-(2-Methoxy-5-methyl-phenyl)-[1,2,4]oxadiazol-3-yl]-pyrrolidin-1-yl}-(4-methyl-2-[1,2,3]triazol-2-yl-phenyl)-methanone] |  | 
7.70 | 7.37 | CCOc1ccccc1-c1noc([C@@H]2CCCN2C(=O)c2ccc(C)cc2-n2nccn2)n1 [compound 256, {(S)-2-[3-(2-Ethoxy-phenyl)-[1,2,4]oxadiazol-5-yl]-pyrrolidin-1-yl}-(4-methyl-2-[1,2,3]triazol-2-yl-phenyl)-methanone] |  | 
6.95 | 6.19 | Cc1cc(C)cc(-c2nnc([C@@H]3CCCN3C(=O)c3cc(C)ccc3-n3nccn3)[nH]2)c1 [Example 511, {(S)-2-[5-(3,5-Dimethyl-phenyl)-4H-[1,2,4]triazol-3-yl]-pyrrolidin-1-yl}-(5-methyl-2-[1,2,3]triazol-2-yl-phenyl)-methanone] |  | 
8.70 | 7.44 | CCOc1ccccc1-c1nc([C@@H]2CCCN2C(=O)c2cc(C)ccc2-n2nccn2)no1 [compound 306, {(S)-2-[5-(2-Ethoxy-phenyl)-[1,2,4]oxadiazol-3-yl]-pyrrolidin-1-yl}-(5-methyl-2-[1,2,3]triazol-2-yl-phenyl)-methanone] |  | 
7.96 | 7.15 | COc1c(F)cccc1-c1noc([C@@H]2CCCN2C(=O)c2ccc(C)cc2-n2nccn2)n1 [compound 195, {(S)-2-[3-(3-Fluoro-2-methoxy-phenyl)-[1,2,4]oxadiazol-5-yl]-pyrrolidin-1-yl}-(4-methyl-2-[1,2,3]triazol-2-yl-phenyl)-methanone] |  | 
6.88 | 6.51 | Cc1ccc(-c2ccccn2)c(C(=O)N2CCC[C@H]2c2nc(-c3ccccc3C(F)(F)F)no2)c1 [compound 184, (5-Methyl-2-pyridin-2-yl-phenyl)-{(S)-2-[3-(2-trifluoromethyl-phenyl)-[1,2,4]oxadiazol-5-yl]-pyrrolidin-1-yl}-methanone] |  | 
8.40 | 6.82 | Cc1ccc(-n2nccn2)c(C(=O)N2CCC[C@H]2c2cc(-c3cccc(C)c3C)no2)c1 [compound 422, {(S)-2-[3-(2,3-Dimethyl-phenyl)-isoxazol-5-yl]-pyrrolidin-1-yl}-(5-methyl-2-[1,2,3]triazol-2-yl-phenyl)-methanone] |  | 
